Laboratory results: the supplement of paper PMC8612539
≈ marks a conversion by molar mass, not a printed value.

What was measured:
[1] = tested on: Mannheimia haemolytica; assay: minimum inhibitory concentration (MIC)
Protocol: (§1)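 Broth microdilution MIC (Sensititre BOPO7F bovine plate, CLSI methods) of 19 antimicrobials against field isolates of P. multocida, M. haemolytica, H. somni (deep nasopharyngeal swabs) and E. coli, Enterococcus spp. (rectal swabs) from weaned dairy heifers. Incubation 16-24 h at 35 C. MIC is the lowest concentration preventing visible growth. Values with <= or > lie at the tested range limits. Trimethoprim-sulfamethoxazole is given as the trimethoprim component of a 1:19 mixture.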

[2] = tested on: Enterococcus spp.; assay: minimum inhibitory concentration (MIC)
Protocol: as §1

CCC[C@@H]1C[C@@H](C(=O)N[C@@H]([C@H]2O[C@H](SC)[C@H](O)[C@@H](O)[C@H]2O)[C@H](C)Cl)N(C)C1 [Clindamycin]
minimum inhibitory concentration [µg/mL]
Details	[1]	[2]
isolate (source animal id): 2	–	≤ 0.25
isolate (source animal id): 8	16 (≈ 37.6 µM)	–
isolate (source animal id): 13	16 (≈ 37.6 µM)	–
isolate (source animal id): 18	16 (≈ 37.6 µM)	–
isolate (source animal id): 21	16 (≈ 37.6 µM)	–
isolate (source animal id): 25	> 16	–
isolate (source animal id): 27	16 (≈ 37.6 µM)	–
isolate (source animal id): 28	16 (≈ 37.6 µM)	–
isolate (source animal id): 30	16 (≈ 37.6 µM)	–
isolate (source animal id): 31	16 (≈ 37.6 µM)	–
isolate (source animal id): 32	8 (≈ 18.8 µM)	–
isolate (source animal id): 34	16 (≈ 37.6 µM)	–
isolate (source animal id): 35	–	> 16
isolate (source animal id): 36	16 (≈ 37.6 µM)	–
isolate (source animal id): 37	16 (≈ 37.6 µM)	–
isolate (source animal id): 40	8 (≈ 18.8 µM)	–
isolate (source animal id): 41	16 (≈ 37.6 µM)	–
isolate (source animal id): 42	–	16 (≈ 37.6 µM)
isolate (source animal id): 43	16 (≈ 37.6 µM)	–
isolate (source animal id): 44	–	16 (≈ 37.6 µM)
isolate (source animal id): 46	16 (≈ 37.6 µM)	–
isolate (source animal id): 49	16 (≈ 37.6 µM)	–
isolate (source animal id): 50	16 (≈ 37.6 µM)	–
isolate (source animal id): 51	16 (≈ 37.6 µM)	–
isolate (source animal id): 52	16 (≈ 37.6 µM)	–
isolate (source animal id): 53	8 (≈ 18.8 µM)	–
isolate (source animal id): 55	8 (≈ 18.8 µM)	–
isolate (source animal id): 56	16 (≈ 37.6 µM)	–
isolate (source animal id): 57	> 16	–
isolate (source animal id): 79	–	16 (≈ 37.6 µM)
isolate (source animal id): 88	–	≤ 0.25
isolate (source animal id): 91	–	≤ 0.25
isolate (source animal id): 92	–	2 (≈ 4.71 µM)
isolate (source animal id): 100	16 (≈ 37.6 µM)	–
isolate (source animal id): 103	16 (≈ 37.6 µM)	–
isolate (source animal id): 107	16 (≈ 37.6 µM)	–
isolate (source animal id): 108	16 (≈ 37.6 µM)	–
isolate (source animal id): 111	–	≤ 0.25
isolate (source animal id): 112	> 16	–
isolate (source animal id): 113	> 16	–
isolate (source animal id): 121	> 16	–
isolate (source animal id): 122	16 (≈ 37.6 µM)	> 16
isolate (source animal id): 123	> 16	8 (≈ 18.8 µM)
isolate (source animal id): 126	> 16	–
isolate (source animal id): 133	> 16	≤ 0.25
isolate (source animal id): 135	> 16	–
isolate (source animal id): 138	> 16	–
isolate (source animal id): 141	> 16	–
isolate (source animal id): 142	> 16	–
isolate (source animal id): 145	8 (≈ 18.8 µM)	–
isolate (source animal id): 149	8 (≈ 18.8 µM)	–
isolate (source animal id): 151	8 (≈ 18.8 µM)	–
isolate (source animal id): 152	16 (≈ 37.6 µM)	–
isolate (source animal id): 154	8 (≈ 18.8 µM)	–
isolate (source animal id): 158	–	> 16
isolate (source animal id): 159	> 16	–
isolate (source animal id): 162	> 16	–
isolate (source animal id): 168	–	≤ 0.25
isolate (source animal id): 169	–	≤ 0.25
isolate (source animal id): 170	16 (≈ 37.6 µM)	–
isolate (source animal id): 171	8 (≈ 18.8 µM)	16 (≈ 37.6 µM)
isolate (source animal id): 172	16 (≈ 37.6 µM)	–
isolate (source animal id): 173	16 (≈ 37.6 µM)	–
isolate (source animal id): 175	–	> 16
isolate (source animal id): 177	–	16 (≈ 37.6 µM)
isolate (source animal id): 179	8 (≈ 18.8 µM)	–
isolate (source animal id): 180	16 (≈ 37.6 µM)	–
isolate (source animal id): 181	–	≤ 0.25
isolate (source animal id): 182	–	≤ 0.25
isolate (source animal id): 183	16 (≈ 37.6 µM)	16 (≈ 37.6 µM)
isolate (source animal id): 186	8 (≈ 18.8 µM)	–
isolate (source animal id): 187	16 (≈ 37.6 µM)	≤ 0.25
isolate (source animal id): 188	16 (≈ 37.6 µM)	–
isolate (source animal id): 190	16 (≈ 37.6 µM)	≤ 0.25
isolate (source animal id): 191	16 (≈ 37.6 µM)	–
isolate (source animal id): 192	8 (≈ 18.8 µM)	–
isolate (source animal id): 194	–	16 (≈ 37.6 µM)
isolate (source animal id): 195	–	≤ 0.25
isolate (source animal id): 197	–	0.5 (≈ 1.18 µM)
isolate (source animal id): 201	16 (≈ 37.6 µM)	–
isolate (source animal id): 202	8 (≈ 18.8 µM)	–
isolate (source animal id): 209	16 (≈ 37.6 µM)	–
isolate (source animal id): 211	16 (≈ 37.6 µM)	≤ 0.25
isolate (source animal id): 214	–	2 (≈ 4.71 µM)
isolate (source animal id): 220	16 (≈ 37.6 µM)	–
isolate (source animal id): 221	16 (≈ 37.6 µM)	–
isolate (source animal id): 222	–	16 (≈ 37.6 µM)
isolate (source animal id): 223	8 (≈ 18.8 µM)	8 (≈ 18.8 µM)
isolate (source animal id): 228	–	2 (≈ 4.71 µM)
isolate (source animal id): 230	–	2 (≈ 4.71 µM)
isolate (source animal id): 233	16 (≈ 37.6 µM)	–
isolate (source animal id): 235	–	> 16
isolate (source animal id): 236	–	8 (≈ 18.8 µM)
isolate (source animal id): 237	16 (≈ 37.6 µM)	–
isolate (source animal id): 239	–	≤ 0.25
isolate (source animal id): 241	16 (≈ 37.6 µM)	> 16
isolate (source animal id): 244	–	16 (≈ 37.6 µM)
isolate (source animal id): 246	–	16 (≈ 37.6 µM)
isolate (source animal id): 247	–	> 16
isolate (source animal id): 250	–	16 (≈ 37.6 µM)
isolate (source animal id): 252	16 (≈ 37.6 µM)	> 16
isolate (source animal id): 253	16 (≈ 37.6 µM)	–
isolate (source animal id): 259	> 16	–
isolate (source animal id): 260	16 (≈ 37.6 µM)	–
isolate (source animal id): 262	16 (≈ 37.6 µM)	–
isolate (source animal id): 268	–	> 16
isolate (source animal id): 282	> 16	4 (≈ 9.41 µM)
isolate (source animal id): 285	–	> 16
isolate (source animal id): 287	> 16	–
isolate (source animal id): 288	16 (≈ 37.6 µM)	–
isolate (source animal id): 289	–	8 (≈ 18.8 µM)
isolate (source animal id): 290	–	16 (≈ 37.6 µM)
isolate (source animal id): 291	16 (≈ 37.6 µM)	–
isolate (source animal id): 293	> 16	–
isolate (source animal id): 296	–	16 (≈ 37.6 µM)
isolate (source animal id): 298	> 16	≤ 0.25
isolate (source animal id): 299	> 16	–
isolate (source animal id): 300	8 (≈ 18.8 µM)	–
isolate (source animal id): 301	–	0.5 (≈ 1.18 µM)
isolate (source animal id): 302	> 16	–
isolate (source animal id): 304	> 16	–
isolate (source animal id): 306	16 (≈ 37.6 µM)	–
isolate (source animal id): 308	16 (≈ 37.6 µM)	–
isolate (source animal id): 309	16 (≈ 37.6 µM)	–
isolate (source animal id): 310	–	> 16
isolate (source animal id): 313	16 (≈ 37.6 µM)	–
isolate (source animal id): 318	8 (≈ 18.8 µM)	–
isolate (source animal id): 320	16 (≈ 37.6 µM)	4 (≈ 9.41 µM)
isolate (source animal id): 321	16 (≈ 37.6 µM)	–
isolate (source animal id): 323	> 16	–
isolate (source animal id): 324	16 (≈ 37.6 µM)	–
isolate (source animal id): 326	> 16	–
isolate (source animal id): 328	16 (≈ 37.6 µM)	–
isolate (source animal id): 329	16 (≈ 37.6 µM)	–
isolate (source animal id): 331	–	8 (≈ 18.8 µM)
isolate (source animal id): 333	16 (≈ 37.6 µM)	16 (≈ 37.6 µM)
isolate (source animal id): 335	16 (≈ 37.6 µM)	–
isolate (source animal id): 338	16 (≈ 37.6 µM)	–
isolate (source animal id): 341	–	> 16
